Reference: patent US20140113934A1, “HETEROCYCLIC COMPOUNDS FOR TREATING HELMINTH INFECTIONS” (E I DU PONT DE NEMOURS AND COMPANY, priority 2011, published 2014)

The molecules below were run on Haemonchus contortus (assay: Test A: control of barber pole worm, eggs in culture media, mortality after 120 hours (L3 stage)). Conditions: not given.
Format: cell-based
Protocol: For evaluating control of the barber pole worm (Haemonchus contortus), a test compound was solubilized in culture media (Earle's Balanced Salt Solution) containing Haemonchus contortus eggs to obtain a final test compound concentration of 2.0 ppm. The test unit was evaluated for mortality 120 hours later after which the eggs had hatched and had advanced to the L3 stage.
`N#Cc1c(Cl)cccc1Oc1ccc(S(=O)(=O)NCc2ccnc3ccccc23)cc1` [Compound 2, 4-(3-chloro-2-cyanophenoxy)-N-(4-quinolinylmethyl)benzenesulfonamide] showed a mortality at 2 ppm of 100%.
For `O=S(=O)(NCc1ccnc2ccccc12)c1ccc(Cc2ccccc2)cc1` [Compound 5, 4-(phenylmethyl)-N-(4-quinolinylmethyl)benzenesulfonamide], the mortality at 2 ppm was 100%.
`COC(=O)c1ccccc1Oc1ccc(S(=O)(=O)NCc2ccnc3ccccc23)cc1` [Compound 16, methyl 2-[4-[[(4-quinolinylmethyl)amino]sulfonyl]phenoxy]benzoate] was tested, and the mortality at 2 ppm was 100%.
Molecule `O=S(=O)(NCc1ccnc2ccccc12)c1ccc(S(=O)(=O)c2ccccc2)s1` [Compound 36] has a mortality at 2 ppm of 100%.
Work on `O=S(=O)(NCc1ccnc2ccccc12)c1ccc(COc2ccccc2)cc1Cl` [Compound 37] yielded a mortality at 2 ppm of 100%.
In the case of `O=S(=O)(NCc1ccnc2ccccc12)c1cccc(OCc2ccccc2)c1` [Compound 40], the mortality at 2 ppm is reported as 100%.
`N#Cc1ccccc1Oc1ccc(S(=O)(=O)NCc2ccnc3ccccc23)cn1` [Compound 41] was tested, and the mortality at 2 ppm was 100%.
In the case of `O=S(=O)(NCc1ccnc2ccccc12)c1cccc(COc2ccc(Cl)cc2Cl)c1` [Compound 44], the mortality at 2 ppm is reported as 100%.
`O=S(=O)(NCc1ccnc2ccccc12)c1cccc(COc2ccccc2)c1` [Compound 46] gave a mortality at 2 ppm of 100%.
`O=S(=O)(NCc1ccnc2ccccc12)c1cccc(Cc2ccccc2)c1` [Compound 64] gave a mortality at 2 ppm of 100%.
`O=S(=O)(NCc1ccnc2ccccc12)c1ccc(C#Cc2ccc(Cl)cc2Cl)s1` [Compound 73] showed a mortality at 2 ppm of 100%.
With `O=S(=O)(NCc1ccnc2ccccc12)c1ccc(C#Cc2ccccc2)s1` [Compound 74] the mortality at 2 ppm was 100%.
Work on `O=S(=O)(NCc1ccnc2ccccc12)c1ccc(C#Cc2ccccc2Cl)s1` [Compound 75] yielded a mortality at 2 ppm of 100%.
In the case of `O=S(=O)(NCc1ccnc2ccccc12)c1ccc(Cc2ccccc2)s1` [Compound 80], the mortality at 2 ppm is reported as 100%.
Molecule `O=S(=O)(NCc1ccnc2ccccc12)c1cccc(Cc2ccc(F)cc2)c1` [Compound 92] has a mortality at 2 ppm of 100%.
Molecule `O=S(=O)(NCc1ccnc2ccccc12)c1ccc(Cc2ccc(F)cc2F)s1` [Compound 99] has a mortality at 2 ppm of 100%.

The molecules below were run on Haemonchus contortus (assay: Test B: Haemonchus contortus burdens in orally infected mice after gavage of test compound). Conditions: mice infected orally with 600 L3 Haemonchus contortus larvae; gavage 10.0 mg/kg on day 0; burdens on day 5 relative to vehicle-dosed controls.
Format: in vivo
Protocol: For evaluating control of the barber pole worm (Haemonchus contortus), mice were each infected orally with 600 L3 Hlaemonchus contortus larvae on Day −3. On day 0, the infected mice were gavaged with a test compound (n=1) in a propylene glycol/glycerol formal solution at the rate of 10.0 mg/kg body weight. On day 5, the mice were euthanized and evaluated for Haemonchus contortus burdens relative to the vehicle-dosed controls. The range of means for the number of Haemonchus contortus in the various tests in which these compounds were studied was 55-184.
In the case of “4-(2-chloro-4-cyanophenoxy)-N-(quinolinylmethyl)benzenesulfonamide [Compound 15]”, the “% Efficacy” value is reported as 79%.
In the case of `O=S(=O)(NCc1ccnc2ccccc12)c1ccc(C(F)c2ccccc2)cc1` (racemic) [Compound 76], the “% Efficacy” value is reported as 87%.
For `N#Cc1c(Cl)cccc1Oc1ccc(S(=O)(=O)NCc2ccnc3ccccc23)cc1` [Compound 2, 4-(3-chloro-2-cyanophenoxy)-N-(4-quinolinylmethyl)benzenesulfonamide], the “% Efficacy” value was 76%.
In the case of `O=S(=O)(NCc1ccnc2ccccc12)c1ccc(Cc2ccccc2)cc1` [Compound 5, 4-(phenylmethyl)-N-(4-quinolinylmethyl)benzenesulfonamide], the “% Efficacy” value is reported as 69%.
For `O=S(=O)(NCc1ccnc2ccccc12)c1ccc(OCc2ccc(Cl)cc2Cl)cc1` [Compound 7], the “% Efficacy” value was 61%.
In the case of `N#Cc1ccc(Oc2ccc(S(=O)(=O)NCc3ccnc4ccccc34)cc2)cc1` [Compound 9], the “% Efficacy” value is reported as 72%.
In the case of `N#Cc1cccc(Oc2ccc(S(=O)(=O)NCc3ccnc4ccccc34)cc2)c1` [Compound 23], the “% Efficacy” value is reported as 54%.
In the case of `COC(=O)c1ccc(Oc2ccc(S(=O)(=O)NCc3ccnc4ccccc34)cc2)c(Cl)c1` [Compound 27], the “% Efficacy” value is reported as 78%.
With `O=S(=O)(NCc1ccnc2ccccc12)c1ccc(C#Cc2ccccc2)cc1` [Compound 28] the “% Efficacy” value was 62%.
In the case of `N#Cc1cc(Br)ccc1Oc1ccc(S(=O)(=O)NCc2ccnc3ccccc23)cc1` [Compound 31], the “% Efficacy” value is reported as 66%.
With `O=S(=O)(NCc1ccnc2ccccc12)c1ccc(COc2ccc(Cl)cc2)cc1` [Compound 34] the “% Efficacy” value was 71%.
For `O=S(=O)(NCc1ccnc2ccccc12)c1ccc(CCc2ccccc2)cc1` [Compound 38], the “% Efficacy” value was 75%.
For `CNC(=O)c1ccc(Oc2ccc(S(=O)(=O)NCc3ccnc4ccccc34)cc2)cc1` [Compound 51], the “% Efficacy” value was 74%.
In the case of `O=C(Nc1ccc(S(=O)(=O)NCc2ccnc3ccccc23)cc1)c1ccccc1` [Compound 53], the “% Efficacy” value is reported as 61%.
In the case of `O=C(Nc1ccc(S(=O)(=O)NCc2ccnc3ccccc23)cc1)c1ccccc1Cl` [Compound 56], the “% Efficacy” value is reported as 78%.
With `O=S(=O)(NCc1ccnc2ccccc12)c1ccc(Cc2ccc(F)cc2)cc1` [Compound 59] the “% Efficacy” value was 86%.
For `O=S(=O)(NCc1ccnc2ccccc12)c1ccc(Cc2ccc(F)cc2F)cc1` [Compound 60], the “% Efficacy” value was 76%.
With `O=S(=O)(NCc1ccnc2ccccc12)c1cccc(Cc2ccccc2)c1` [Compound 64] the “% Efficacy” value was 70%.
With `COc1ccccc1C(=O)Nc1ccc(S(=O)(=O)NCc2ccnc3ccccc23)cc1` [Compound 69] the “% Efficacy” value was 90%.
In the case of `O=S(=O)(NCc1ccnc2ccccc12)c1ccc(Nc2ccccc2)cc1` [Compound 70], the “% Efficacy” value is reported as 89%.
In the case of `O=S(=O)(NCc1ccnc2ccccc12)c1ccc(C#Cc2ccccc2)s1` [Compound 74], the “% Efficacy” value is reported as 60%.
For `O=S(=O)(NCc1ccnc2ccccc12)c1ccc(Cc2ccccc2)s1` [Compound 80], the “% Efficacy” value was 80%.
For `O=S(=O)(NCc1ccnc2ccccc12)c1ccc(Cc2ccccc2F)cc1` [Compound 91], the “% Efficacy” value was 93%.
For `O=S(=O)(NCc1ccnc2ccccc12)c1cccc(Cc2ccc(F)cc2)c1` [Compound 92], the “% Efficacy” value was 73%.
